Molecules are shown by their SMILES. ≈ marks a conversion by molar mass, not a printed value. Calls of active or inactive are those of the source. The calls are words filed in the database; no cut-off is given here.

Data set [1] relates to Staphylococcus aureus. Nature of the data set: Induction of autolysis in daptomycin-nonsusceptible Staphylococcus aureus isolate 703 bloodstream form isolated from patient 50 ug/ml within 24 hrs. It counts as functional, organism-based.
In data set [2] the test system is Staphylococcus aureus. Nature of the data set: Induction of autolysis in daptomycin-nonsusceptible Staphylococcus aureus isolate 701 bloodstream form isolated from patient 50 ug/ml within 24 hrs. It counts as functional, organism-based.
Data set [3] deals with Staphylococcus aureus. In words: Induction of autolysis in daptomycin-nonsusceptible Staphylococcus aureus isolate 703 bloodstream form isolated from patient 50 ug/ml measured at 18 hrs. It counts as functional, organism-based.
For data set [4], the system named is Staphylococcus aureus. Nature of the data set: Induction of autolysis in daptomycin-transitional Staphylococcus aureus isolate 629 bloodstream form isolated from patient 50 ug/ml within 24 hrs. The data set is classed as functional, organism-based.
The subject of data set [5] is Staphylococcus aureus. Nature of the data set: Antibacterial activity against daptomycin-transitional Staphylococcus aureus isolate 629 bloodstream form isolated from patient with endocarditis assessed as inhibition on heterogeneous subpopulation survival rate at 0.25 and 1 ug/ml after 48 hrs. It counts as functional, organism-based.
For data set [6], the system named is Staphylococcus aureus. In words: Antibacterial activity against daptomycin-nonsusceptible Staphylococcus aureus isolate 701 bloodstream form isolated from patient with endocarditis assessed as inhibition on heterogeneous subpopulation survival rate at 0.25 and 1 ug/ml after 48 hrs. The data set is classed as functional, organism-based.
For data set [7], the system named is Staphylococcus aureus. Nature of the data set: Induction of autolysis in methicillin-susceptible Staphylococcus aureus isolate 616 bloodstream form isolated from patient 50 ug/ml within 24 hrs. The data set is classed as functional, organism-based.
For data set [8], the system named is Staphylococcus aureus. Nature of the data set: Antibacterial activity against daptomycin-nonsusceptible Staphylococcus aureus isolate 703 bloodstream form isolated from patient with endocarditis assessed as inhibition on heterogeneous subpopulation survival rate at 0.25 and 1 ug/ml after 48 hrs. The data set is classed as functional, organism-based.
Data set [9] concerns Staphylococcus aureus. Nature of the data set: Antibacterial activity against methicillin-susceptible Staphylococcus aureus isolate 616 bloodstream form isolated from patient with endocarditis assessed as inhibition on heterogeneous subpopulation survival rate at 0.25 and 1 ug/ml after 48 hrs. It counts as functional, organism-based.
For data set [10], the system named is Staphylococcus aureus. Nature of the data set: Reduction of membrane permeabilization in methicillin-susceptible Staphylococcus aureus isolate 616 bloodstream form isolated from patient with endocarditis assessed as calcein retention at 1.5 ug/ml after 120 mins by fluorometric analysis. It counts as functional, organism-based.
The subject of data set [11] is Staphylococcus aureus. Nature of the data set: Induction of autolysis in methicillin-susceptible Staphylococcus aureus isolate 616 bloodstream form isolated from patient 6 ug/ml within 4 to 24 hrs. It counts as functional, organism-based.
Data set [12] concerns Staphylococcus aureus. Nature of the data set: Antibacterial activity against daptomycin-nonsusceptible Staphylococcus aureus isolate 701 bloodstream form isolated from patient with endocarditis by Etest. It counts as functional.
For data set [13], the system named is Staphylococcus aureus. In words: Induction of autolysis in daptomycin-nonsusceptible Staphylococcus aureus isolate 701 bloodstream form isolated from patient 6 ug/ml within 4 to 24 hrs. The data set is classed as functional, organism-based.
The test system of data set [14] is Staphylococcus aureus. Nature of the data set: Induction of cell membrane depolarization in daptomycin-nonsusceptible Staphylococcus aureus isolate 703 bloodstream form isolated from patient with endocarditis at 6 ug/ml after 60 mins by flow cytometry. The data set is classed as functional, organism-based. (In flow cytometry, cells or beads pass a laser one at a time.)

For data set [15], the system named is Staphylococcus aureus. In words: Drug binding to daptomycin-transitional Staphylococcus aureus isolate 629 bloodstream form isolated from patient with endocarditis at 6 ug after 10 mins by radial diffusion assay. The data set is classed as ADME, organism-based.
The subject of data set [16] is Staphylococcus aureus. In words: Induction of cell membrane depolarization in daptomycin-nonsusceptible Staphylococcus aureus isolate 701 bloodstream form isolated from patient with endocarditis at 40 ug/ml after 60 mins by flow cytometry. The data set is classed as functional, organism-based.
Data set [17] deals with Staphylococcus aureus. In words: Induction of cell membrane depolarization in daptomycin-nonsusceptible Staphylococcus aureus isolate 701 bloodstream form isolated from patient with endocarditis at 6 ug/ml after 60 mins by flow cytometry. The data set is classed as functional, organism-based.
In data set [18] the test system is Staphylococcus aureus. In words: Drug binding to daptomycin-nonsusceptible Staphylococcus aureus isolate 701 bloodstream form isolated from patient with endocarditis at 6 ug after 10 mins by radial diffusion assay. It counts as ADME, organism-based.
The subject of data set [19] is Staphylococcus aureus. In words: Antibacterial activity against daptomycin-transitional Staphylococcus aureus isolate 629 bloodstream form isolated from patient with endocarditis assessed as inhibition on heterogeneous subpopulation survival rate at 0.5 and 1 ug/ml after 48 hrs. It counts as functional, organism-based.
Data set [20] concerns Staphylococcus aureus. In words: Antibacterial activity against daptomycin-nonsusceptible Staphylococcus aureus isolate 701 bloodstream form isolated from patient with endocarditis assessed as inhibition on heterogeneous subpopulation survival rate at 0.5 and 4 ug/ml after 48 hrs. It counts as functional, organism-based.
Data set [21] deals with Staphylococcus aureus. Nature of the data set: Reduction of membrane permeabilization in daptomycin-transitional Staphylococcus aureus isolate 629 bloodstream form isolated from patient with endocarditis assessed as calcein retention at 1.5 ug/ml after 120 mins by fluorometric analysis. It counts as functional, organism-based.
For data set [22], the system named is Staphylococcus aureus. Nature of the data set: Antibacterial activity against Staphylococcus aureus SA113 by Etset. It counts as functional.
In data set [23] the test system is Staphylococcus aureus. In words: Induction of cell membrane depolarization in daptomycin-transitional Staphylococcus aureus isolate 629 bloodstream form isolated from patient with endocarditis at 6 ug/ml after 60 mins by flow cytometry. It counts as functional, organism-based.
In data set [24] the test system is Staphylococcus aureus. Nature of the data set: Antibacterial activity against daptomycin-transitional Staphylococcus aureus isolate 629 bloodstream form isolated from patient with endocarditis by Etest. The data set is classed as functional.
The subject of data set [25] is Staphylococcus aureus. Nature of the data set: Antibacterial activity against Staphylococcus aureus SA113 harboring null mutation in mprF gene by Etset. The data set is classed as functional.
Data set [26] has as its system Staphylococcus aureus. In words: microbe, parasite or virus in culture. As to conditions: 616.
Description: Antibacterial activity against methicillin-susceptible Staphylococcus aureus isolate 616 bloodstream form isolated from patient with endocarditis by Etest
Data set [27] relates to Staphylococcus aureus. In words: Antibacterial activity against daptomycin-nonusceptible Staphylococcus aureus isolate 703 bloodstream form isolated from patient with endocarditis assessed as inhibition on heterogeneous subpopulation survival rate at 0.5 and 4 ug/ml after 48 hrs. It counts as functional, organism-based.
In data set [28] the test system is Staphylococcus aureus. In words: Reduction of membrane permeabilization in daptomycin-nonsusceptible Staphylococcus aureus isolate 701 bloodstream form isolated from patient with endocarditis assessed as calcein retention at 1.5 ug/ml after 120 mins by fluorometric analysis. The data set is classed as functional, organism-based.
Data set [29] relates to Staphylococcus aureus. In words: Drug binding to methicillin-susceptible Staphylococcus aureus isolate 616 bloodstream form isolated from patient with endocarditis at 6 ug after 10 mins by radial diffusion assay. As to conditions: in vivo. The data set is classed as ADME, organism-based.
In data set [30] the test system is Staphylococcus aureus. Nature of the data set: Induction of cell membrane depolarization in daptomycin-transitional Staphylococcus aureus isolate 629 bloodstream form isolated from patient with endocarditis at 40 ug/ml after 60 mins by flow cytometry. It counts as functional, organism-based.
Data set [31] deals with Staphylococcus aureus. Nature of the data set: Antibacterial activity against daptomycin-nonsusceptible Staphylococcus aureus isolate 703 bloodstream form isolated from patient with endocarditis by Etest. The data set is classed as functional.
Data set [32] has as its system Staphylococcus aureus. In words: Induction of cell membrane depolarization in daptomycin-nonsusceptible Staphylococcus aureus isolate 701 bloodstream form isolated from patient with endocarditis at 0.75 ug/ml after 60 mins by flow cytometry. The data set is classed as functional, organism-based.
The test system of data set [33] is Staphylococcus aureus. In words: Induction of cell membrane depolarization in methicillin-susceptible Staphylococcus aureus isolate 616 bloodstream form isolated from patient with endocarditis at 0.75 ug/ml after 60 mins by flow cytometry. It counts as functional, organism-based.
Data set [34] deals with Staphylococcus aureus. In words: Induction of cell membrane depolarization in daptomycin-nonsusceptible Staphylococcus aureus isolate 703 bloodstream form isolated from patient with endocarditis at 0.75 ug/ml after 60 mins by flow cytometry. It counts as functional, organism-based.
Data set [35] deals with Staphylococcus aureus. In words: Induction of cell membrane depolarization in daptomycin-transitional Staphylococcus aureus isolate 629 bloodstream form isolated from patient with endocarditis at 0.75 ug/ml after 60 mins by flow cytometry. The data set is classed as functional, organism-based.
The subject of data set [36] is Staphylococcus aureus. Nature of the data set: Induction of cell membrane depolarization in methicillin-susceptible Staphylococcus aureus isolate 616 bloodstream form isolated from patient with endocarditis at 40 ug/ml after 60 mins by flow cytometry. It counts as functional, organism-based.
Data set [37] deals with Staphylococcus aureus. In words: Induction of cell membrane depolarization in methicillin-susceptible Staphylococcus aureus isolate 616 bloodstream form isolated from patient with endocarditis at 6 ug/ml after 60 mins by flow cytometry. The data set is classed as functional, organism-based.
Data set [38] concerns Staphylococcus aureus. Nature of the data set: Induction of cell membrane depolarization in daptomycin-nonsusceptible Staphylococcus aureus isolate 703 bloodstream form isolated from patient with endocarditis at 40 ug/ml after 60 mins by flow cytometry. It counts as functional, organism-based.
For data set [39], the system named is Staphylococcus aureus. Nature of the data set: Induction of autolysis in daptomycin-nonsusceptible Staphylococcus aureus isolate 703 bloodstream form isolated from patient 6 ug/ml within 4 to 24 hrs. It counts as functional, organism-based.
Data set [40] relates to Staphylococcus aureus. In words: Antibacterial activity against methicillin-susceptible Staphylococcus aureus isolate 616 bloodstream form isolated from patient with endocarditis assessed as inhibition on heterogeneous subpopulation survival rate at 0.5 and 1 ug/ml after 48 hrs. The data set is classed as functional, organism-based.
Data set [41] has as its system Staphylococcus aureus. In words: Reduction of membrane permeabilization in daptomycin-nonsusceptible Staphylococcus aureus isolate 703 bloodstream form isolated from patient with endocarditis assessed as calcein retention at 1.5 ug/ml after 120 mins by fluorometric analysis. It counts as functional, organism-based.
The subject of data set [42] is Staphylococcus aureus. Nature of the data set: Drug binding to daptomycin-nonsusceptible Staphylococcus aureus isolate 703 bloodstream form isolated from patient with endocarditis at 6 ug after 10 mins by radial diffusion assay. The data set is classed as ADME, organism-based.

Turning to `CN[C@H](CC(C)C)C(=O)N[C@H]1C(=O)N[C@@H](CC(N)=O)C(=O)N[C@H]2C(=O)N[C@H]3C(=O)N[C@H](C(=O)N[C@H](C(=O)O)c4cc(O)cc(O)c4-c4cc3ccc4O)[C@H](O)c3ccc(c(Cl)c3)Oc3cc2cc(c3O[C@@H]2O[C@H](CO)[C@@H](O)[C@H](O)[C@H]2O[C@H]2C[C@](C)(N)[C@H](O)[C@H](C)O2)Oc2ccc(cc2Cl)[C@H]1O`, the outcome with Staphylococcus aureus [1], in the data set with Staphylococcus aureus [2], with Staphylococcus aureus [3], in the data set on Staphylococcus aureus [4], in the data set on Staphylococcus aureus [5] and with Staphylococcus aureus [6] was inactive. Besides, the result in the data set with Staphylococcus aureus [8] and with Staphylococcus aureus [9] was inactive. The outcome in the data set with Staphylococcus aureus [7] was Active.

With `CCCCCCCCCC(=O)N[C@@H](Cc1c[nH]c2ccccc12)C(=O)N[C@H](CC(N)=O)C(=O)N[C@@H](CC(=O)O)C(=O)N[C@@H]1C(=O)NCC(=O)N[C@@H](CCCN)C(=O)N[C@@H](CC(=O)O)C(=O)N[C@H](C)C(=O)N[C@@H](CC(=O)O)C(=O)NCC(=O)N[C@H](CO)C(=O)N[C@@H]([C@H](C)CC(=O)O)C(=O)N[C@@H](CC(=O)c2ccccc2N)C(=O)O[C@@H]1C`, the result with Staphylococcus aureus [10], in the data set on Staphylococcus aureus [13], in the data set on Staphylococcus aureus [14], in the data set on Staphylococcus aureus [16], in the data set on Staphylococcus aureus [17] and in the data set on Staphylococcus aureus [19] was inactive. Moreover, the outcome in the data set with Staphylococcus aureus [20], in the data set on Staphylococcus aureus [23], in the data set on Staphylococcus aureus [27], in the data set with Staphylococcus aureus [30], with Staphylococcus aureus [32] and with Staphylococcus aureus [34] was inactive. Also, the result with Staphylococcus aureus [35], in the data set on Staphylococcus aureus [36], with Staphylococcus aureus [38], in the data set with Staphylococcus aureus [39] and in the data set with Staphylococcus aureus [40] was inactive. Also, the outcome with Staphylococcus aureus [11], in the data set on Staphylococcus aureus [21], in the data set on Staphylococcus aureus [28], with Staphylococcus aureus [33], in the data set on Staphylococcus aureus [37] and in the data set on Staphylococcus aureus [41] was Active. Besides, the MIC against Staphylococcus aureus [12] is 2 mg/L (≈ 1.23 µM); against Staphylococcus aureus [22] it was 0.38 mg/L (≈ 0.234 µM); in the data set with Staphylococcus aureus [24], 0.75 mg/L (≈ 0.463 µM); with Staphylococcus aureus [25] it was 0.094 mg/L (≈ 0.058 µM); with Staphylococcus aureus [26], 0.5 mg/L (≈ 0.309 µM); against Staphylococcus aureus [31], 2 mg/L (≈ 1.23 µM). The Drug uptake with Staphylococcus aureus [15] is 1.61 µg/mL; with Staphylococcus aureus [18], 2.32 µg/mL; in the data set on Staphylococcus aureus [29], 5.4 µg/mL; in the data set with Staphylococcus aureus [42] it was 2.24 µg/mL.

The values above are taken from ChEMBL document CHEMBL1151454, “Failures in clinical treatment of Staphylococcus aureus Infection with daptomycin are associated with alterations in surface charge, membrane phospholipid asymmetry, and drug binding” (Antimicrob Agents Chemother, 2008).
